This is an account of results in patent US10280170B2, “Substituted 4,5,6,7-tetrahydro-pyrazolo[1,5-a]pyrazine derivatives and 5,6,7,8-tetrahydro-4H-pyrazolo[1,5-a][1,4]diazepine derivatives as Ros1 inhibitors” (Janssen Pharmaceutica NV, priority 2014, dated 2019).

The structures appear in SMILES notation. Where two headings read alike, the source gives them in different places.

Data set [1] has as its target Ba/F3 cells containing Ros1 with a mutation at the gatekeeper residue (L2026M) (Homo sapiens, UniProt P08922, L2026M, cells depend on it, form not given). As to the kind of experiment: Ba/F3-Ros1 cell proliferation assay, L2026M gatekeeper mutant. The settings on record: without IL-3. It is filed as cell-based, murine. The procedure, abridged:
(§1)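 Compounds dispensed from 100% DMSO; Ba/F3 cells carrying one of three Ros1 forms added at 20000/well in RPMI-1640 with 10% FBS. Plates kept 24 h at 37 °C under 5% CO2. Alamar Blue added, 4 h further incubation, fluorescence measured at 540/590 nm.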

The target of data set [2] is Ba/F3 cells containing Ros1 with G2032R mutation (Homo sapiens, UniProt P08922, G2032R, cells depend on it, form not given). The data set can be described thus: Ba/F3-Ros1 cell proliferation assay, G2032R crizotinib-resistance mutant. It counts as cell-based, murine. The settings on record: without IL-3. On the procedure: Ba/F3-Ros1 Cell Proliferation Assay
This assay was carried out with Ba/F3 cells containing three different versions of Ros1: the wild-type protein, protein with a mutation at the gatekeeper residue (L2026M), and protein with a mutation identified in a tumor from a patient that became resistant to crizotinib (Xalkori®) treatment (G2032R). Compounds were solubilized in 100% DMSO (dimethyl sulfoxide) and sprayed into polystyrene, tissue culture treated 384-well plates. A 50 μl volume of cell culture medium (phenol red free RPMI-1640, 10% FBS (fetal bovine serum), 2 mM L-Glutamine) containing 20000 Ba/F3-Ros1 cells was added to each well and the plates were placed in an incubator at 37° C. and 5% CO2. After 24 hours, 10 μl of Alamar Blue solution (0.5 mM K3Fe(CN)6, 0.5 mM K4Fe(CN)6, 0.15 mM Resazurin and 100 mM Phosphate Buffer) was added to the wells, incubated for 4 hours at 37° C. and 5% CO2 before RFU's (Relative Fluorescence Units) (ex. 540 nm., em. 590 nm.) were measured in a fluorescence plate reader.

In data set [3] the target is T1, Ros1 enzyme (Homo sapiens, UniProt P08922).
T1 construct: 0.5 μg/ml Ros1 enzyme
The data set can be described thus: Ros1 enzymatic assay. It is filed as biochemical. The settings on record: Ros1 enzymatic assay; read-out: ROS1 pIC50 (converted). The procedure, abridged: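 Peptide phosphorylation by Ros1 is measured by 33P transfer from 20 μM ATP (as prepared in substrate mix) over 2 h at ambient temperature, pH 7.5 with Mg2+.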

Data set [4] deals with Ba/F3 cells containing Ros1 wild-type protein + IL-3. The data set can be described thus: Ba/F3-Ros1 cell proliferation counter-screen, wild-type protein in the presence of 10 ng/ml murine IL-3. It is filed as cell-based. The settings on record: Mus musculus, BaF3, 24 h, read-out: BaF3-ROS1 + IL3 pIC50 (converted). The procedure, abridged: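 Proliferation of IL-3-supplemented (10 ng/ml, murine) Ba/F3 cells bearing wild-type Ros1 is measured after 24 h compound treatment. Alamar Blue conversion over 4 h gives fluorescence at 590 nm.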
(The purpose of a counterscreen is to sort out artefacts and off-target activity.)

Data set [5] has as its target T2, Ba/F3 cells containing Ros1 wild-type protein (Homo sapiens, UniProt P08922, cells depend on it, form not given).
T2 construct: The background only speaks of 'a number of different unrelated proteins' and names SLC34A2-ROS1 for HCC78 cells
As to the kind of experiment: Ba/F3-Ros1 cell proliferation assay, wild-type Ros1. The settings on record: without IL-3. It is filed as cell-based, murine. The procedure, abridged: as §1

Data set [6] has as its system Ros pY2274 in HCC78 cells. The data set can be described thus: pROS1 immunofluorescence assay in HCC78 cells. It counts as cell-based. The settings on record: Homo sapiens, read-out: HCC78-pRos1 pIC50 (converted). The essentials: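 HCC78 NSCLC cells treated with compound for 4 h at 37 °C, then fixed and immunostained for ROS1 pY2274 (Alexa Fluor 680, read at 700 nm). Total ROS1 stained in parallel (IRDye800cw, 800 nm) and used to normalize phospho signal.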

The test system of data set [7] is HCC78 non-small cell lung cancer cells. The data set can be described thus: HCC78 cell proliferation assay. It is filed as cell-based. The settings on record: Homo sapiens, HCC78, 96 h, read-out: HCC-78 PROL pEC50 (converted). The essentials:
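HCC78 NSCLC cells (~1000/well) in RPMI-1640 with 10% FBS were treated 24 h after seeding and exposed to compound for 4 days at 37 °C. Viability was read by MTT, with absorbance at 538 nm after DMSO/glycine solubilization.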

Setting [8] is: counter-screen, wild-type, 10 ng/ml murine IL-3.
The mark [9] stands for this setting: HCC78 cells, 4 hours, Ros pY2274 normalized to total Ros1.

Ba/F3 cells containing Ros1 with G2032R mutation, sequence (P08922 whole entry G2032R, form open): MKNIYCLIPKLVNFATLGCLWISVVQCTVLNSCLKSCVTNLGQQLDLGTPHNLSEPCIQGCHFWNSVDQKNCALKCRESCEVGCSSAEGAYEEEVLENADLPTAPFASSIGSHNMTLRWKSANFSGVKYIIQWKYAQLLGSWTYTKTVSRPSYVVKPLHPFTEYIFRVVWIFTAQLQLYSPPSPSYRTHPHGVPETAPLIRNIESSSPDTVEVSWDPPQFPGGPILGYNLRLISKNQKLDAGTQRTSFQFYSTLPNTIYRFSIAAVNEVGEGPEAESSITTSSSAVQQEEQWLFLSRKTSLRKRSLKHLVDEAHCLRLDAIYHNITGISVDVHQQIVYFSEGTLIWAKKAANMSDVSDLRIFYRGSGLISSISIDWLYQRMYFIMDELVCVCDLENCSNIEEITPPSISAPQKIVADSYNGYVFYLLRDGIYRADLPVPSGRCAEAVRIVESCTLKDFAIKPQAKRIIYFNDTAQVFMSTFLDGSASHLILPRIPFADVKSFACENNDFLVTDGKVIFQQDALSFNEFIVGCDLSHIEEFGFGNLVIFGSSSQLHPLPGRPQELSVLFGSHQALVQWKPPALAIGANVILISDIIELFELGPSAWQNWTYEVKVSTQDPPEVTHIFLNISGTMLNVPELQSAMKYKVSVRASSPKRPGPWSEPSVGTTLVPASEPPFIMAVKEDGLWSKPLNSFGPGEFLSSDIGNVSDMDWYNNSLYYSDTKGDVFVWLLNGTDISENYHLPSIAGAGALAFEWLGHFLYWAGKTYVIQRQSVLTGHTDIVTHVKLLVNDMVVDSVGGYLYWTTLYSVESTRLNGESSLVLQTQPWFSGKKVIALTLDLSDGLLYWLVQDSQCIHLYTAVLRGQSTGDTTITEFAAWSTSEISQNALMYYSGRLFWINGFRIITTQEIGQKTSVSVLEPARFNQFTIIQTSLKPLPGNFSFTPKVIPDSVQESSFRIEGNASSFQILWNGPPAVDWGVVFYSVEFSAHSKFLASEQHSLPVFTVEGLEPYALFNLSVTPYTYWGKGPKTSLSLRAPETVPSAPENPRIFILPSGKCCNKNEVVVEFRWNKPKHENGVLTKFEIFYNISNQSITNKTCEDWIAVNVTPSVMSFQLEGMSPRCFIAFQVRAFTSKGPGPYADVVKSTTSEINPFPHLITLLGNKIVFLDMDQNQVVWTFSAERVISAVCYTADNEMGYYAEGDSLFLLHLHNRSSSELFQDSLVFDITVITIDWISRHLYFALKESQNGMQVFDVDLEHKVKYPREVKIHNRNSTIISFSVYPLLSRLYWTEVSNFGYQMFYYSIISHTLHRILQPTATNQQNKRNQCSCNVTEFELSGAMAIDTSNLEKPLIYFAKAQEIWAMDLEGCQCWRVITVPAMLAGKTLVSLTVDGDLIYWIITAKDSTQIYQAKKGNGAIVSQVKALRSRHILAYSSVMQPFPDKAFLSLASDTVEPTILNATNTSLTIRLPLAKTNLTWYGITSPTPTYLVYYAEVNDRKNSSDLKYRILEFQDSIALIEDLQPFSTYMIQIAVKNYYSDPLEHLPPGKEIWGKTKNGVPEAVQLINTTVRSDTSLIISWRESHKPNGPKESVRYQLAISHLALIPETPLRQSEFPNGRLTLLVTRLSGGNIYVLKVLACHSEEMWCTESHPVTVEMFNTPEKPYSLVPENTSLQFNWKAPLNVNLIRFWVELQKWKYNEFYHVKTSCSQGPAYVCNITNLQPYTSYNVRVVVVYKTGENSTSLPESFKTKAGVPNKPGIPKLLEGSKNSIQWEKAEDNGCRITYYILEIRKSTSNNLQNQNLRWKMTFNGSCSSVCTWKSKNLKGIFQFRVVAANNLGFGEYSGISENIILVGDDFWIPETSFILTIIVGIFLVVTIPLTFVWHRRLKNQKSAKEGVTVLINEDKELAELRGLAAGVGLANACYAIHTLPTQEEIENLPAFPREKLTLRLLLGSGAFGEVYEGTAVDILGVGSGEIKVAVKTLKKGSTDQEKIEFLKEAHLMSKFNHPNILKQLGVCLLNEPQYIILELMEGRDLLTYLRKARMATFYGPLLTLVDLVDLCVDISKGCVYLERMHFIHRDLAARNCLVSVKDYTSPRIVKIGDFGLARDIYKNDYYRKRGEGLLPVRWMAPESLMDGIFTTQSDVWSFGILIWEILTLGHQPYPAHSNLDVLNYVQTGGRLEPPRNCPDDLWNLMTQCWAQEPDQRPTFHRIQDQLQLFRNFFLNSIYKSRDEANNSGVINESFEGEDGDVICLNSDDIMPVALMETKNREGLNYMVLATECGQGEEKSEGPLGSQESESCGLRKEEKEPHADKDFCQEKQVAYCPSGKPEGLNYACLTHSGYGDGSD
T2 sequence (P08922 whole entry, stated change not applied): as the sequence (P08922 whole entry G2032R, form open) above, with R2032G counted along it
T1 sequence (P08922 28-2347): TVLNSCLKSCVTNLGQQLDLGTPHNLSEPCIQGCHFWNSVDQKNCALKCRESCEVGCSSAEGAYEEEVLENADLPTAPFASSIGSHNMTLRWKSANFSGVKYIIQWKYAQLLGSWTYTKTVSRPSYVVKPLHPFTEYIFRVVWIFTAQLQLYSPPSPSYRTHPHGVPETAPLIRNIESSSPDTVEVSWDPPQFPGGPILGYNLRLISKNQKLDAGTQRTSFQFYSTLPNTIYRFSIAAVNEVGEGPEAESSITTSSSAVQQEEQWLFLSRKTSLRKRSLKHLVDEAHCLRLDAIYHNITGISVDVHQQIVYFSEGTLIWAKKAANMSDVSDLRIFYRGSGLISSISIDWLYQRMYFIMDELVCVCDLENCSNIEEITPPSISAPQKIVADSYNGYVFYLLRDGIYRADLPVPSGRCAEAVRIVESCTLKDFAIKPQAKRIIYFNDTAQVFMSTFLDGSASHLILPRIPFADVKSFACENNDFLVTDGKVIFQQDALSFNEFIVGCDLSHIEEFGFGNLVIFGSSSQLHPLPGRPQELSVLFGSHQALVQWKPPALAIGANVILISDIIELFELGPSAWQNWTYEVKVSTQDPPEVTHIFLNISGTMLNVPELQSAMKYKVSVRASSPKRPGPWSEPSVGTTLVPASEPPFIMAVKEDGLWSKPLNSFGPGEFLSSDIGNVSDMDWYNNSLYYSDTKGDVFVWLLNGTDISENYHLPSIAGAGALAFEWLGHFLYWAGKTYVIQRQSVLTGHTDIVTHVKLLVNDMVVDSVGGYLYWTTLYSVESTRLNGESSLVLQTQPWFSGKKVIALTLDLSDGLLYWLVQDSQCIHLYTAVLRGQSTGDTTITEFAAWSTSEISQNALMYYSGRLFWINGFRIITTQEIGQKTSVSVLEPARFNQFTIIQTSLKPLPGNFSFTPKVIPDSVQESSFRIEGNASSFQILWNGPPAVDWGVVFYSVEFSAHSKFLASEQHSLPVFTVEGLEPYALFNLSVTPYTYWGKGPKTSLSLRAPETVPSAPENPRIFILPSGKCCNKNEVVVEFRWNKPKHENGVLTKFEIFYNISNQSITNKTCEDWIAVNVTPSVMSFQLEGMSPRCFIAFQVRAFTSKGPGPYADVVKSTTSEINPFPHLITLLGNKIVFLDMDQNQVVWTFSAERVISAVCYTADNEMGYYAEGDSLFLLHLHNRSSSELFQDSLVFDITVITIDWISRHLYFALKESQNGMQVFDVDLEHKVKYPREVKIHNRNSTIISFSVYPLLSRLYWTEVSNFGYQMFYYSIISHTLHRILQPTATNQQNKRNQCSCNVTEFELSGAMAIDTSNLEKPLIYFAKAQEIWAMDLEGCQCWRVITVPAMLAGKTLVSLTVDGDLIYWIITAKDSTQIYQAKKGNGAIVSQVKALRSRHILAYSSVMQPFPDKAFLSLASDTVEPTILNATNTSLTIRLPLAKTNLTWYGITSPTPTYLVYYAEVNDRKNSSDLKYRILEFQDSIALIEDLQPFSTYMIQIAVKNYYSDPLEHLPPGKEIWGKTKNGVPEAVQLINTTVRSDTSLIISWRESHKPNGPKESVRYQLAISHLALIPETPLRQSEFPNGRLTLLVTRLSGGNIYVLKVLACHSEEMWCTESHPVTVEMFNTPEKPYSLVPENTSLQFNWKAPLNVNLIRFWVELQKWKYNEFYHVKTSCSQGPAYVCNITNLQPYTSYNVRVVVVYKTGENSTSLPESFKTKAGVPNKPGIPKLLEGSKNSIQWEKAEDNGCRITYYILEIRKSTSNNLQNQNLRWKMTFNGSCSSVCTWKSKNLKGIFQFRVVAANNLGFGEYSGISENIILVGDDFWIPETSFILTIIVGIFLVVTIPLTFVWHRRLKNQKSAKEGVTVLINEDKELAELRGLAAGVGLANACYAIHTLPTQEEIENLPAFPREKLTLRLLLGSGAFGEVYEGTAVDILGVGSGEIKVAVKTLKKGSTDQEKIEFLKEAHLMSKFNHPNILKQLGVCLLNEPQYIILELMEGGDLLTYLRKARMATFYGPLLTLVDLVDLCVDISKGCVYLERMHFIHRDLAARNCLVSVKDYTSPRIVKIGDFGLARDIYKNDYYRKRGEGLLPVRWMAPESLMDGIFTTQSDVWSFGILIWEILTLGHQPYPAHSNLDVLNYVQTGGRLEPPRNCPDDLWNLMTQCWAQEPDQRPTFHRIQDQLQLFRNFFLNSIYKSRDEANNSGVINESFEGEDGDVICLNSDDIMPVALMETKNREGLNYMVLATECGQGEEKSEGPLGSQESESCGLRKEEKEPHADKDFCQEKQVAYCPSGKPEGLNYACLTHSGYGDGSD
Ba/F3 cells containing Ros1 with a mutation at the gatekeeper residue (L2026M), sequence (P08922 whole entry L2026M, form open): as the sequence (P08922 whole entry G2032R, form open) above, with L2026M, R2032G counted along it

Take `CC(C)(C#N)c1ccc(COc2ccc(-c3c(-c4ccncc4)nn4c3C(=O)NCC4)cc2)cc1` [Compound 10]: the melting point (usually the temperature, or range, at which the solid turns liquid) turned out to be 280 °C. In data set [1], the “Ba/F3 Ros1 L2026M (-IL-3) pIC50” value is recorded as 6.9. For the same compound, the “Ba/3 Ros1 G2032R (-IL-3) pIC50” value in data set [2] worked out at 6.6. The IC50 in data set [3] is 79.4 nM. Moreover, the CC50 in data set [4] was greater than 10 µM. Moreover, the “BaF3-ROS1-IL3 pIC50” value in data set [5] is reported as 7.1. Besides, the IC50 in data set [6] (HCC78, 4 h) was 25.1 nM. In data set [7], the EC50 was 158 nM.
The compound `COc1cc(-c2c(-c3ccncc3)nn3c2C(=O)NCC3)ccc1OCc1ccc(C(C)C)cc1` [Compound 32] gave a melting point of 187 °C. Moreover, the “Ba/F3 Ros1 L2026M (-IL-3) pIC50” value in data set [1] was determined as 8.0. For the same compound, in data set [2], the “Ba/3 Ros1 G2032R (-IL-3) pIC50” value worked out at 7.3. In addition, the IC50 in data set [3] was 6.31 nM. For the same compound, in data set [4], the CC50 was greater than 10 µM. The “BaF3-ROS1-IL3 pIC50” value in data set [5] was determined as 8.0. Further, the IC50 in data set [6] (HCC78, 4 h) was 15.8 nM. Also, the EC50 in data set [7] was 50.1 nM.
Regarding `CC(C)c1ccc(COc2ccc(-c3c(-c4ccncc4)nn4c3C(=O)N(C(C)C)CC4)cc2)cc1` [Compound 49], the melting point worked out at 168 °C. Besides, the “Ba/F3 Ros1 L2026M (-IL-3) pIC50” value in data set [1] is 7.2. Moreover, in data set [2], the “Ba/3 Ros1 G2032R (-IL-3) pIC50” value turned out to be 6.9. Further, the IC50 in data set [3] is 39.8 nM. The CC50 in data set [4] is greater than 10 µM. In addition, the “BaF3-ROS1-IL3 pIC50” value in data set [5] came out at 7.3. In data set [6] (HCC78, 4 h), the IC50 was 31.6 nM. Moreover, the EC50 in data set [7] is 100 nM.
For the compound `CC(C)c1ccc(COc2ccc(-c3c(-c4ccncc4)nn4c3C(=O)N(CC3(C)COC3)CC4)cc2)cc1` [Compound 54], the melting point stood at 204 °C. In data set [1], the “Ba/F3 Ros1 L2026M (-IL-3) pIC50” value worked out at 7.2. For the same compound, the “Ba/3 Ros1 G2032R (-IL-3) pIC50” value in data set [2] is 6.6. For the same compound, the IC50 in data set [3] was 79.4 nM. Besides, in data set [4], the CC50 is greater than 10 µM. In addition, the “BaF3-ROS1-IL3 pIC50” value in data set [5] is listed as 7.3. For the same compound, in data set [6] (HCC78, 4 h), the IC50 is 20 nM. Moreover, the EC50 in data set [7] is 79.4 nM.
The compound `CC(C)c1ccc(COc2ccc(-c3c(-c4ccncc4)nn4c3C(=O)NCC4)cn2)cc1` [Compound 71] registered a melting point of 199 °C. Also, the “Ba/F3 Ros1 L2026M (-IL-3) pIC50” value in data set [1] is given as 7.6. Besides, the “Ba/3 Ros1 G2032R (-IL-3) pIC50” value in data set [2] is reported as 7.0. In addition, the IC50 in data set [3] is 25.1 nM. Further, in data set [4], the CC50 is greater than 10 µM. Also, in data set [5], the “BaF3-ROS1-IL3 pIC50” value is listed as 7.7. Moreover, the IC50 in data set [6] (HCC78, 4 h) was 39.8 nM. Further, the EC50 in data set [7] is 100 nM.
As for `O=C1NCCn2nc(-c3ccncc3)c(-c3ccc(OCc4ccc(OC(F)(F)F)cc4)cc3)c21` [Compound 116], the melting point was found to be 260 °C. For the same compound, the “Ba/F3 Ros1 L2026M (-IL-3) pIC50” value in data set [1] stood at 7.3. Further, the “Ba/3 Ros1 G2032R (-IL-3) pIC50” value in data set [2] came out at 6.6. For the same compound, the IC50 in data set [3] is 126 nM. Also, the CC50 in data set [4] was greater than 10 µM. Moreover, in data set [5], the “BaF3-ROS1-IL3 pIC50” value stood at 7.3. Moreover, the IC50 in data set [6] (HCC78, 4 h) is 158 nM. Besides, the EC50 in data set [7] was 251 nM.
As to `CN1CCn2nc(-c3ccncc3)c(-c3ccc(OCc4ccc(C5CC5)nc4)cc3)c2C1=O` [Compound 138], the melting point stood at 175 °C. For the same compound, in data set [1], the “Ba/F3 Ros1 L2026M (-IL-3) pIC50” value came out at 6.8. Moreover, the “Ba/3 Ros1 G2032R (-IL-3) pIC50” value in data set [2] turned out to be 6.0. In addition, the IC50 in data set [3] was 100 nM. In addition, the CC50 in data set [4] (setting [8]) was greater than 10 µM. The “BaF3-ROS1-IL3 pIC50” value in data set [5] was found to be 6.9. In addition, the IC50 in data set [6] (setting [9]) was 316 nM. The EC50 in data set [7] (HCC78 cells, 4 days, MTT) was 501 nM.
As for `CNC(=O)CN1CCn2nc(-c3ccncc3)c(-c3ccc(OCc4ccc(C(C)C)cc4)cc3)c2C1` [Compound 174], the melting point stood at 185 °C. The “Ba/F3 Ros1 L2026M (-IL-3) pIC50” value in data set [1] amounted to 6.8. The “Ba/3 Ros1 G2032R (-IL-3) pIC50” value in data set [2] stood at 6.4. In addition, in data set [3], the IC50 was 200 nM. In addition, in data set [4] (setting [8]), the CC50 is greater than 10 µM. In data set [5], the “BaF3-ROS1-IL3 pIC50” value is 6.8. For the same compound, the IC50 in data set [6] (setting [9]) is 251 nM. The EC50 in data set [7] (HCC78 cells, 4 days, MTT) was 794 nM.
